17 compounds from PubChem BioAssay (NCI) can be followed below.

Holding throughout (experiment): NCI-60 cell line screen, 48 h
Test [1] relates to HCC-2998 colon.
The subject of test [2] is SNB-75 CNS.
Test [3] has as its system RPMI-8226 leukemia.
In test [4] the test system is T-47D breast.
Test [5] concerns M14 melanoma.
The subject of test [6] is UO-31 renal.
Test [7] relates to BT-549 breast.
In test [8] the test system is UACC-62 melanoma.
The subject of test [9] is MCF7 breast.
The test system of test [10] is EKVX NSCLC.

Where “and” joins values, the source holds several entries; their conditions need not be identical. Equal values may be shown once.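 How tested: cells in 96-well plates exposed to compound for 48 hours at five concentrations. Here, GI50 denotes the concentration required for 50% inhibition of growth. TGI denotes the concentration required for complete inhibition of growth.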

For the compound `COc1cc(/C=C/C(=O)N2CCN(C(=O)c3cc(OC)c(OC)c(OC)c3)CC2)ccc1OCCCOc1cc2c(cc1OC)C(=O)N1CCC[C@H]1C=N2`, the GI50 in test [1] is 0.296 µM; in test [2], 0.241 µM; in test [3] it was 0.431 µM; in test [4], 0.15 µM; in [5], 0.346 µM; in test [6], 1.98 µM. Moreover, the GI50 is 0.154 µM in [7], 0.162 µM in [8], 0.109 µM in test [9] and 0.794 µM in test [10]. Moreover, the TGI in [1] is 0.838 µM; in test [2], 0.642 µM; in [3], more than 100 µM; in [4] it was 0.495 µM; in test [5], 1.42 µM; in [6], 6.56 µM. Besides, the TGI amounted to 0.434 µM in test [7], 0.338 µM in test [8], 0.636 µM in test [9] and 4.56 µM in [10].
As for `COc1ccc(-n2ccnc2-c2cc(OC)c(OC)c(OC)c2)cc1`, the GI50 was 0.957 µM in test [1]; 2.19 µM in [2]; 3.78 µM in test [3]; 8.48 µM in test [4]; 2.46 µM in [5]; 4.91 µM in test [6]. Also, the GI50 is 5.03 µM in test [7], 2.61 µM in [8], 1.55 µM in test [9] and 34 µM in test [10]. In addition, the TGI in test [1] was 24.6 µM; in [2], 6.31 µM; in test [3], 30.7 µM; in [4], more than 100 µM; in test [5], more than 100 µM; in [6], 71.2 µM. The TGI is more than 100 µM in [7], 27.3 µM in test [8], more than 100 µM in test [9] and more than 100 µM in [10].
On to `COc1ccc(C2=NN(C(=O)c3cc(OC)c(OC)c(OC)c3)C(c3ccc(N(C)C)cc3)C2)cc1` (stereo unspecified), for which the GI50 was 0.357 µM in [1]; 0.346 µM in [2]; 0.663 µM in test [3]; 0.535 µM in test [4]; 0.496 µM in [5]; 0.558 µM in test [6]. Moreover, the GI50 in test [7] was 1.58 µM; in test [8] it was 0.496 µM; in test [9] it was 0.318 µM; in [10], 1.43 µM. For the same compound, the TGI was 2.69 µM in [1]; 8.72 µM in test [2]; more than 20 µM in [3]; more than 100 µM in test [4]; more than 21 µM in test [5]; more than 100 µM in test [6]. Moreover, the TGI in test [7], in test [8] and in [10] was more than 100 µM throughout.
Regarding `CC(=O)OC12COC1CC(O)C1(C)C(=O)C(O)C3=C(C)C(O)CC(O)(C(OC(=O)c4ccccc4)C21)C3(C)C` (stereo unspecified), the TGI in test [1] was 59.3 µM; in test [2] it was more than 29.9 µM; in test [3], more than 59.8 µM; in test [4], more than 100 µM; in test [5], more than 100 µM; in test [6], more than 100 µM. Besides, the TGI in test [7], in test [8], in test [9] and in test [10] was more than 100 µM in each case.
Consider `O=C(O)c1ccc(C(=O)O)c(C(=O)Nc2ccc3c(c2)C(=O)c2ccccc2-3)c1`, for which the TGI in test [1], in test [2], in test [3], in test [4], in [5] and in [6] was more than 100 µM each time. Besides, the TGI in [7], in test [8], in test [9] and in test [10] was more than 100 µM in each case.
Take `CC(C)(C)c1c2c(c(C(C)(C)C)c3c1OCN(Cc1ccccc1)C3)OCN(Cc1ccccc1)C2`: the TGI in test [1] is 22.3 µM; in test [2], more than 100 µM; in [3] it was 44.6 µM; in [4], more than 100 µM; in test [5], 29 µM; in test [6], 35.4 µM. In addition, the TGI was found to be 39.4 µM in test [7], 38.7 µM in test [8], 61.6 µM in [9] and 41.5 µM in test [10].
Consider `O=C1c2cccc(NCCN=Cc3ccccc3O)c2C(=O)c2c(NCCN=Cc3ccccc3O)cccc21`, for which the GI50 in test [1] is 0.535 µM; in test [2] it was 0.163 µM; in test [3], 0.878 µM; in [4], 0.684 µM; in [5] it was 1.88 µM; in test [6], 0.596 µM. Moreover, the GI50 is 2.77 µM in test [7], 1.59 µM in test [8], 0.279 µM in test [9] and 1.87 µM in [10]. Further, the TGI is 1.72 µM in [1]; 2.65 µM in [2]; 4.29 µM in test [3]; 4.46 µM in test [4]; 5.63 µM in test [5]; 3.06 µM in test [6]. For the same compound, the TGI amounted to 9.37 µM in test [7], 4.86 µM in [8], 1.08 µM in [9] and 8.39 µM in [10].
`O=C(Nc1n[nH]c2nnc(-c3cccnc3)cc12)C1CC1`: the GI50 is 8.95 µM in [1]; 0.141 µM in [2]; more than 25 µM in test [3]; more than 12.9 µM in [4]; more than 16.1 µM in test [5]; 1.65 µM in [6]. In addition, the GI50 in test [7] was 10.8 µM; in [8], 7.37 µM; in test [9] it was 1.07 µM; in [10], more than 20.9 µM. For the same compound, the TGI in [1] was more than 25 µM; in test [2], more than 25 µM; in test [3], more than 25 µM; in [4] it was more than 25 µM; in [5], more than 25 µM; in [6], more than 20.3 µM. Moreover, the TGI in [7], in [8], in [9] and in test [10] was more than 25 µM each time.
For `O=c1oc2ccc(Br)cc2c(=O)n1-c1ccc(I)cc1F`, the GI50 in test [1] is 2.2 µM; in test [2], 0.219 µM; in [3] it was 0.266 µM; in test [4], 0.279 µM; in [5] it was 0.416 µM; in test [6], 0.24 µM. Besides, the GI50 in test [7] was 0.341 µM; in [8] it was 0.264 µM; in test [9] it was 0.709 µM; in test [10] it was 0.594 µM. Further, the TGI in test [1] is 8.78 µM; in test [2], 1.36 µM; in test [3], 1.16 µM; in [4], 1.52 µM; in [5], 4.39 µM; in test [6], 1.22 µM. Further, the TGI in [7] amounted to 1.39 µM; in [8], 0.886 µM; in [9], 5.87 µM; in test [10], 5.73 µM.
Regarding `COc1cc2c(cc1OC)C1Cc3cc(OC)c(OC)cc3C(C2)N1C`, the TGI in test [1] was more than 100 µM; in test [2], more than 100 µM; in test [3] it was more than 100 µM; in test [4] it was more than 75 µM; in test [5], more than 100 µM; in test [6], more than 100 µM. Also, the TGI in test [7] was more than 75 µM; in test [8], more than 75 µM; in [9] it was more than 75 µM; in test [10] it was more than 100 µM. Moreover, the GI50 in test [3] was 17.1 µM and > 100 µM; in test [6], 19.7 µM and 40.5 µM.
For `O=C(Nc1ccccc1)c1cc(S(=O)(=O)Nc2nc3ccccc3o2)c(SCc2ccccc2)cc1Cl`, the GI50 was 18.7 µM in [1]; 25.3 µM in test [2]; 15.4 µM in test [3]; 22.5 µM in test [4]; 20.6 µM in [5]; 17.8 µM in [6]. Also, the GI50 is 19 µM in [7], 17.1 µM in test [8], 28.4 µM in test [9] and 15.3 µM in [10]. Besides, the TGI in test [1] was determined as 34.8 µM; in test [2], 66.9 µM; in test [3], 46.8 µM; in [4], 91.3 µM; in test [5] it was 38.6 µM; in test [6] it was 48.5 µM. Further, the TGI in [7] came to 40.6 µM; in test [8], 31.6 µM; in test [9], 80.6 µM; in test [10], 31.3 µM.
Turning to `COc1cc2c(cc1Nc1nc(Nc3cccc(F)c3C(N)=O)c3cc[nH]c3n1)N(C(=O)CN1CCN(C(C)C)CC1)CC2`, the GI50 in [1] is 3.08 µM; in test [2], 3 µM; in test [3], 4.58 µM; in [4], 3.23 µM; in test [5], 3.99 µM; in test [6], 3.92 µM. Also, the GI50 in test [7] was 3.95 µM; in test [8], 3.9 µM; in [9] it was 0.683 µM; in test [10], 3.08 µM. Moreover, the TGI in test [1] came out at 6.31 µM; in test [2] it was 6.18 µM; in test [3], 10.9 µM; in test [4] it was 6.54 µM; in [5], 7.54 µM; in test [6] it was 9.74 µM. Further, the TGI in [7] worked out at 7.54 µM; in test [8], 7.74 µM; in test [9], 4.32 µM; in test [10], 7.13 µM.
Consider `O=c1ssc(Cl)c1Cl`, for which the TGI in test [1] was more than 10 µM; in test [2] it was more than 10 µM; in [3], 9.11 µM; in test [4] it was more than 10 µM; in [5] it was more than 10 µM; in test [6], more than 6.86 µM. The TGI in [7], in test [8], in test [9] and in test [10] was more than 10 µM in each case.
`Cc1cc(C(C)(C)C)cc(CNC2CCCCC2)c1O`: the TGI in [1] is 10.4 µM; in [2], 26 µM; in [3], 45.5 µM; in [4], 32.8 µM; in test [5], 29.4 µM; in test [6], 28.2 µM. Moreover, the TGI in test [7] worked out at 30 µM; in [8] it was 29.6 µM; in [9] it was 32.3 µM; in [10], 31.4 µM.
Consider `CC(=O)N1N=C2/C(=C/c3ccc(Cl)cc3)CC(C)CC2C1c1ccc(Cl)cc1` (stereo unspecified), for which the GI50 is 19.1 µM in test [1]; 18.4 µM in test [2]; 9.14 µM in test [3]; 12.4 µM in [4]; 17.7 µM in test [5]; 15.1 µM in test [6]. Also, the GI50 in [7] was 17 µM; in test [8], 21.1 µM; in [9] it was 19.2 µM; in test [10] it was 21.5 µM. Also, the TGI in test [1] is 38.1 µM; in test [2], 65.3 µM; in [3], 32.6 µM; in [4], 61.8 µM; in test [5], 35.3 µM; in test [6], 30.5 µM. The TGI turned out to be 34.2 µM in [7], 52.2 µM in test [8], 54.2 µM in test [9] and 92.7 µM in [10].
As to `CCN(CC)C1CCC(Nc2c(C(C)=O)cnc3ccc(-c4ccc(O)c(Cl)c4)cc23)CC1` (stereo unspecified), the GI50 in test [1] is 1.63 µM; in test [2], 0.152 µM; in [3] it was 0.393 µM; in test [4], 1.94 µM; in [5], 0.468 µM; in test [6] it was 0.425 µM. Besides, the GI50 is 1.91 µM in [7], 3.47 µM in test [8], 0.229 µM in test [9] and 1.82 µM in [10]. Moreover, the TGI is 12.9 µM in [1]; 5.33 µM in [2]; 2.1 µM in [3]; more than 100 µM in test [4]; 15.4 µM in test [5]; more than 36.8 µM in [6]. For the same compound, the TGI in test [7] is 5.89 µM; in test [8] it was 25.4 µM; in test [9], 1.42 µM; in test [10], more than 47.2 µM.
For `CC(=O)OC1CC2C3CCC4C[C@@H](NC(=O)C=C(C)C)CC[C@]4(C)C3CC[C@]2(C)[C@H]1C(C)N(C)C` (stereo partly specified), the GI50 in [1] was 1.75 µM; in test [2], 2 µM; in test [3], 1.66 µM; in [4], 1.55 µM; in test [5], 1.6 µM; in [6] it was 0.949 µM. Also, the GI50 in [7] was 4.21 µM; in [8], 2.16 µM; in [9], 1.71 µM; in test [10] it was 2.25 µM. For the same compound, the TGI in test [1] amounted to 3.57 µM; in [2], 6.51 µM; in test [3] it was 5.67 µM; in [4] it was 6.08 µM; in test [5], 3.39 µM; in test [6] it was 2.95 µM. Further, the TGI in test [7] came to 11.1 µM; in test [8], 4.45 µM; in test [9], 5.84 µM; in [10], 11.3 µM.
